Measurements: patent US20230278972A1, “SUBSTITUTED HALOALKYL SULFONANILIDE HERBICIDES” (FMC Corporation, priority 2020, published 2023)

How the values were obtained:
[1] = tested on: Ryegrass, Italian (Italian ryegrass, Lolium multiflorum); assay: Test A preemergence, Ryegrass, Italian; assay type: in vivo; settings: Lolium multiflorum, pre-emergence, 240 h; for pest or weed control at 1000 g/ha: Preemergence, 1000 g ai/ha, 0 to 100 scale (0 no effect, 100 complete control)
Procedure, shortened: (§1)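 Seeds are sown in loam mixed with sand and sprayed on the soil surface right after planting for the preemergence test. Postemergence pots are sprayed once seedlings reach 2 to 10 cm at the one- to two-leaf stage. The same surfactant-containing, non-phytotoxic solvent formulation serves both.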

[2] = tested on: blackgrass (Alopecurus myosuroides); assay: Test A postemergence, blackgrass; assay type: in vivo; settings: Alopecurus myosuroides, post-emergence, 240 h, read-out: Plant response rating, Blackgrass; for pest or weed control at 1000 g/ha: Postemergence, 1000 g ai/ha, visual injury, 0 to 100 scale (0 no effect, 100 complete control), approx. 10 days
Procedure, shortened: as §1

[3] = tested on: pigweed (Amaranthus retroflexus); assay: Test A postemergence, pigweed; assay type: in vivo; settings: Amaranthus retroflexus, post-emergence, 240 h, read-out: Plant response rating, Pigweed; for pest or weed control at 1000 g/ha: Postemergence, 1000 g ai/ha, visual injury, 0 to 100 scale (0 no effect, 100 complete control), approx. 10 days
Procedure, shortened: as §1

[4] = tested on: pigweed (Amaranthus retroflexus); assay: Test A preemergence, pigweed; assay type: in vivo; settings: Amaranthus retroflexus, pre-emergence, 240 h, 1000 g ai/ha, 0 to 100 scale (0 no effect, 100 complete control), read-out: Plant response rating, Pigweed
Procedure, shortened: (§2)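 Directed soil spray at planting gave the preemergence treatment, while foliar application to one- to two-leaf seedlings (2–10 cm) gave the postemergence one; pots held a loam and sand mixture and chemicals were carried in a non-phytotoxic solvent with surfactant.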

[5] = tested on: Foxtail, Giant (giant foxtail, Setaria faberi); assay: Test A preemergence, Foxtail, Giant; assay type: in vivo; settings: Setaria faberi, pre-emergence, 240 h; for pest or weed control at 1000 g/ha: Preemergence, 1000 g ai/ha, 0 to 100 scale (0 no effect, 100 complete control)
Procedure, shortened: as §1

[6] = tested on: barnyardgrass (Echinochloa crus-galli); assay: Test B flooded paddy test, barnyardgrass; settings: 336 h, read-out: Plant response rating, Barnyardgrass
[7] = tested on: barnyardgrass (Echinochloa crus-galli); assay: Test A postemergence, barnyardgrass; assay type: in vivo; settings: Echinochloa crus-galli, post-emergence, 240 h, read-out: Plant response rating, Barnyardgrass; for pest or weed control at 1000 g/ha: Postemergence, 1000 g ai/ha, visual injury, 0 to 100 scale (0 no effect, 100 complete control), approx. 10 days
Procedure, shortened: as §2

corn (Zea mays) = assay: Test A postemergence, corn; assay type: in vivo; settings: Zea mays, post-emergence, 240 h; for Corn plant response rating (crop injury, 0 = no effect, 100 = complete kill) at 1000 g/ha: Postemergence, 1000 g ai/ha, visual injury, 0 to 100 scale (0 no effect, 100 complete control), approx. 10 days
Procedure, shortened: as §1

kochia (Bassia scoparia) [8] = assay: Test A postemergence, kochia; assay type: in vivo; settings: Bassia scoparia, post-emergence, 240 h, read-out: Plant response rating, Kochia; for pest or weed control at 1000 g/ha: Postemergence, 1000 g ai/ha, visual injury, 0 to 100 scale (0 no effect, 100 complete control), approx. 10 days
Procedure, shortened: as §1

[9] = tested on: wheat (Triticum aestivum); assay: Test A postemergence, wheat; assay type: in vivo; settings: Triticum aestivum, post-emergence, 240 h, read-out: Plant response rating, Wheat; for plant injury at 1000 g/ha: Postemergence, 1000 g ai/ha, visual injury, 0 to 100 scale (0 no effect, 100 complete control), approx. 10 days
Procedure, shortened: as §2

[10] = tested on: Ryegrass, Italian (Italian ryegrass, Lolium multiflorum); assay: Test A postemergence, Ryegrass, Italian; assay type: in vivo; settings: Lolium multiflorum, post-emergence, 240 h, read-out: Plant response rating, Ryegrass, Italian; for pest or weed control at 1000 g/ha: Postemergence, 1000 g ai/ha, visual injury, 0 to 100 scale (0 no effect, 100 complete control), approx. 10 days
Procedure, shortened: as §1

[11] = tested on: ragweed (common ragweed, Ambrosia artemisiifolia); assay: Test A postemergence, ragweed; assay type: in vivo; settings: Ambrosia artemisiifolia, post-emergence, 240 h, read-out: Plant response rating, Ragweed; for pest or weed control at 1000 g/ha: Postemergence, 1000 g ai/ha, visual injury, 0 to 100 scale (0 no effect, 100 complete control), approx. 10 days
Procedure, shortened: as §1

[12] = tested on: Foxtail, Giant (giant foxtail, Setaria faberi); assay: Test A postemergence, Foxtail, Giant; assay type: in vivo; settings: Setaria faberi, post-emergence, 240 h, read-out: Plant response rating, Foxtail, Giant; for pest or weed control at 1000 g/ha: Postemergence, 1000 g ai/ha, visual injury, 0 to 100 scale (0 no effect, 100 complete control), approx. 10 days
Procedure, shortened: as §1

kochia (Bassia scoparia) [13] = assay: Test A preemergence, kochia; assay type: in vivo; settings: Bassia scoparia, pre-emergence, 240 h; for pest or weed control at 1000 g/ha: Preemergence, 1000 g ai/ha, 0 to 100 scale (0 no effect, 100 complete control)
Procedure, shortened: as §1

[14] = tested on: ducksalad (Heteranthera limosa); assay: Test B flooded paddy test, ducksalad; settings: 336 h, read-out: Plant response rating, Ducksalad
[15] = tested on: barnyardgrass (Echinochloa crus-galli); assay: Test A preemergence, barnyardgrass; assay type: in vivo; settings: Echinochloa crus-galli, pre-emergence, 240 h; for pest or weed control at 1000 g/ha: Preemergence, 1000 g ai/ha, 0 to 100 scale (0 no effect, 100 complete control)
Procedure, shortened: as §1

[16] = tested on: galium (catchweed bedstraw, Galium aparine); assay: Test A postemergence, galium; assay type: in vivo; settings: Galium, post-emergence, 240 h, read-out: Plant response rating, Galium; for pest or weed control at 1000 g/ha: Postemergence, 1000 g ai/ha, visual injury, 0 to 100 scale (0 no effect, 100 complete control), approx. 10 days
Procedure, shortened: as §2

rice (Oryza sativa) = assay: Test B flooded paddy test, rice; settings: 336 h, read-out: Plant response rating, Rice
[17] = tested on: ragweed (common ragweed, Ambrosia artemisiifolia); assay: Test A preemergence, ragweed; assay type: in vivo; settings: Ambrosia artemisiifolia, pre-emergence, 240 h
Procedure, shortened: as §1

[18] = read-out: Plant response rating, Ryegrass, Italian
[19] = read-out: Plant response rating, Foxtail, Giant
[20] = read-out: Plant response rating, Kochia
[21] = read-out: Plant response rating, Barnyardgrass
[22] = read-out: Plant response rating, Corn

## Cc1cc(C)c(C(=O)N2CCOCC2)cc1NS(=O)(=O)C(F)(F)F [Compound 6, N-[2,4-Dimethyl-5-(4-morpholinylcarbonyl)phenyl]-1,1,1-trifluoromethanesulfonamide]
[1]; [18]
  pest or weed control at 1000 g/ha: 100%
[2]
  pest or weed control at 1000 g/ha: 60%
[3]
  pest or weed control at 1000 g/ha: 100%
[4]
  pest or weed control at 1000 g/ha: 100%
[5]; [19]
  pest or weed control at 1000 g/ha: 100%
[6]
  pest or weed control at 250 g/ha: 0%
[7]
  pest or weed control at 1000 g/ha: 90%
Corn (Zea mays)
  Corn plant response rating (crop injury, 0 = no effect, 100 = complete kill) at 1000 g/ha: 60%
Kochia (Bassia scoparia) [8]
  pest or weed control at 1000 g/ha: 80%
[9]
  plant injury at 1000 g/ha: 60%
[10]
  pest or weed control at 1000 g/ha: 80%
[11]
  pest or weed control at 1000 g/ha: 50%
[12]
  pest or weed control at 1000 g/ha: 90%
Kochia (Bassia scoparia) [13]; [20]
  pest or weed control at 1000 g/ha: 100%
[14]
  pest or weed control at 250 g/ha: 0%
[15]; [21]
  pest or weed control at 1000 g/ha: 100%
[16]
  pest or weed control at 1000 g/ha: 90%
Rice (Oryza sativa)
  plant injury at 250 g/ha: 0%

## Cc1cc(C)c(C(=O)N2CCCCC2)cc1NS(=O)(=O)C(F)(F)F [Compound 260, N-[2,4-Dimethyl-5-(1-piperidinylcarbonyl)phenyl]-1,1,1-trifluoromethanesulfonamide]
[1]; [18]
  pest or weed control at 1000 g/ha: 100%
[2]
  pest or weed control at 1000 g/ha: 50%
other
  melting point: 262 to 266 °C
[3]
  pest or weed control at 1000 g/ha: 80%
[4]
  pest or weed control at 1000 g/ha: 100%
[5]; [19]
  pest or weed control at 1000 g/ha: 100%
[6]
  pest or weed control at 250 g/ha: 0%
[7]
  pest or weed control at 1000 g/ha: 90%
Corn (Zea mays)
  Corn plant response rating (crop injury, 0 = no effect, 100 = complete kill) at 1000 g/ha: 10%
Kochia (Bassia scoparia) [8]
  pest or weed control at 1000 g/ha: 0%
[17]; Preemergence, 1000 g ai/ha, 0 to 100 scale (0 no effect, 100 complete control), read-out: Plant response rating, Ragweed
  pest or weed control at 1000 g/ha: 90%
[9]
  plant injury at 1000 g/ha: 60%
[10]
  pest or weed control at 1000 g/ha: 60%
[11]
  pest or weed control at 1000 g/ha: 50%
[12]
  pest or weed control at 1000 g/ha: 50%
Kochia (Bassia scoparia) [13]; [20]
  pest or weed control at 1000 g/ha: 40%
[14]
  pest or weed control at 250 g/ha: 80%
[15]; [21]
  pest or weed control at 1000 g/ha: 100%
[16]
  pest or weed control at 1000 g/ha: 70%
Rice (Oryza sativa)
  plant injury at 250 g/ha: 0%

## Cc1cc(C)c(N(COC(=O)C(C)(C)C)S(=O)(=O)C(F)(F)F)cc1N1CCC2(CCCCC2)C1=O [Compound 268, [[2,4-Dimethyl-5-(1-oxo-2-azaspiro[4.5]dec-2-yl)phenyl][(trifluoromethyl)sulfonyl]amino]methyl 2,2-dimethylpropanoate]
[1]; [18]
  pest or weed control at 125 g/ha: 0%
[1]; read-out: Ryegrass, Italian plant response rating
  pest or weed control at 500 g/ha: 60%
[2]
  pest or weed control at 125 g/ha: 20%
  pest or weed control at 500 g/ha: 40%
[3]
  pest or weed control at 125 g/ha: 60%
  pest or weed control at 500 g/ha: 80%
[5]; read-out: Foxtail, Giant plant response rating
  pest or weed control at 500 g/ha: 70%
[5]; [19]
  pest or weed control at 125 g/ha: 50%
[6]
  pest or weed control at 250 g/ha: 40%
[7]
  pest or weed control at 125 g/ha: 50%
  pest or weed control at 500 g/ha: 80%
Corn (Zea mays); [22]
  plant injury at 125 g/ha: 50%
  plant injury at 500 g/ha: 70%
Kochia (Bassia scoparia) [8]
  pest or weed control at 125 g/ha: 30%
  pest or weed control at 500 g/ha: 40%
[17]; read-out: Plant response rating, Ragweed
  pest or weed control at 125 g/ha: 40%
[17]; read-out: Ragweed plant response rating
  pest or weed control at 500 g/ha: 90%
[9]
  plant injury at 125 g/ha: 50%
  plant injury at 500 g/ha: 70%
[10]
  pest or weed control at 125 g/ha: 40%
  pest or weed control at 500 g/ha: 60%
[11]
  pest or weed control at 125 g/ha: 70%
  pest or weed control at 500 g/ha: 90%
[12]
  pest or weed control at 125 g/ha: 0%
  pest or weed control at 500 g/ha: 30%
Kochia (Bassia scoparia) [13]; read-out: Kochia plant response rating
  pest or weed control at 500 g/ha: 70%
Kochia (Bassia scoparia) [13]; [20]
  pest or weed control at 125 g/ha: 70%
[14]
  pest or weed control at 250 g/ha: 70%
[15]; read-out: Barnyardgrass plant response rating
  pest or weed control at 500 g/ha: 50%
[15]; [21]
  pest or weed control at 125 g/ha: 40%
[16]
  pest or weed control at 125 g/ha: 90%
  pest or weed control at 500 g/ha: 90%
Rice (Oryza sativa)
  plant injury at 250 g/ha: 0%
